Results on 7 molecules are retold here after publication doi:10.1101/2023.02.14.528348v1, “Plasticity of the binding pocket in peptide transporters underpins promiscuous substrate recognition” (biorxiv, 2023).

Experiment [1] concerns the target T1, DtpB (Escherichia coli, UniProt P36837).
T1 construct: purified membrane protein; reconstituted in liposomes for transport; Nb132 complex for crystals; host, tags and borders only in supplement
T1 sequence (P36837 1-489): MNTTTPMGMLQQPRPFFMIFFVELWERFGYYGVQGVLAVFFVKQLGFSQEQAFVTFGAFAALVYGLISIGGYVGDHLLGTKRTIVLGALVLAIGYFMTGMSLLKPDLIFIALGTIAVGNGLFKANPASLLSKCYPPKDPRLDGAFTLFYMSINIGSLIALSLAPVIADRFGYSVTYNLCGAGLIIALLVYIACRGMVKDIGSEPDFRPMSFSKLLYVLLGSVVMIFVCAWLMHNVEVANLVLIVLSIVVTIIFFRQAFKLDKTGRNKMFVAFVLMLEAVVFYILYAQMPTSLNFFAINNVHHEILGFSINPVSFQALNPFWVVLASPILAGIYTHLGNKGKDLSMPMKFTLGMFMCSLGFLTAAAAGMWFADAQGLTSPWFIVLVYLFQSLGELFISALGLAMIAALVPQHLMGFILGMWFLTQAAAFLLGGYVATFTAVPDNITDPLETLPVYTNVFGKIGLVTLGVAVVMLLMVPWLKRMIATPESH
The experiment can be described thus: inhibition of AA transport, pyranine fluorescence assay in proteoliposomes. The class given is biochemical.

Experiment [2] addresses T1, DtpB. The experiment can be described thus: thermal unfolding titration, irreversible kinetic (Hall) model; also co-crystal structure. Type of experiment: binding. To be noted: purified protein.
Experiment [3] addresses T1, DtpB. The experiment can be described thus: inhibition of AA transport, pyranine fluorescence assay in proteoliposomes. Type of experiment: biochemical. This is another data set of the same source.
The target of experiment [4] is T1, DtpB. Briefly: thermal unfolding titration, irreversible kinetic (Hall) model. Type of experiment: binding.
Experiment [5] addresses T1, DtpB. The experiment can be described thus: X-ray crystal structure of complex. Type of experiment: binding. The settings on record: crystallised with nanobody Nb132; inward-facing open; central cavity.

Marks after values point to notes of the source that are not given here. Residues, ends and D or L forms follow the SMILES beside them.

In the case of `C[C@H](N)C(=O)N[C@@H](Cc1ccccc1)C(=O)O` [AF, Ala-Phe], half-maximal inhibition on DtpB [1] (IC50) required 2370 ± 680 µM. In addition, at DtpB [2], the KD result is “Peptide affinity is color-coded with AF having the highest affinity”. Besides, affinity at DtpB [3] was put at a Ki of 250 ± 80 µM. As to `O=C(O)[C@H](Cc1ccc(O)cc1)NC(=O)[C@@H]1CCCN1` [PY] (H-Pro-Tyr-OH), the Kd (usually the equilibrium constant for the complex coming apart) at DtpB [4] amounted to 206 ± 126 µM.

For the molecule `CC[C@H](C)[C@H](NC(=O)[C@H](C)N)C(=O)O` [AI, Ala-Ile] (H-Ala-Ile-OH), at DtpB [5], the “X-ray crystal structure of complex” value is “Structure of DtpB bound to nanobody Nb132 and the dipeptide AI”. As to `C[C@H](N)C(=O)N[C@@H](CCCCN)C(=O)O` [AK] (H-Ala-Lys-OH), the Kd on DtpB [4] stood at 1770 ± 90 µM. On DtpB [4], `N[C@@H](CO)C(=O)N[C@@H](Cc1c[nH]cn1)C(=O)O` [SH] (H-Ser-His-OH) showed a Kd of 352 ± 38 µM. On to `CC(C)[C@H](NC(=O)[C@@H](N)CCCCN)C(=O)O` [KV, Lys-Val] (H-Lys-Val-OH), for which the “X-ray crystal structure of complex” value on DtpB [5] was “Q34 interacts with the ε-amino group of K1* in KV”. Turning to `C[C@H](N)C(=O)N[C@@H](Cc1c[nH]cn1)C(=O)O` [AH] (H-Ala-His-OH), the affinity at DtpB [4], expressed as Kd, was 100 ± 40 µM.
